pIC50: −log10 of the molar value.

Results on 21 compounds are retold here after patent publication US9884063B2, “Amido-substituted azole compounds” (Bayer Pharma Aktiengesellschaft, priority 2014, dated 2018).

One test deals with T1, TNKS2 (Homo sapiens, UniProt Q9H2K2).
T1 sequence (Q9H2K2 1-1166): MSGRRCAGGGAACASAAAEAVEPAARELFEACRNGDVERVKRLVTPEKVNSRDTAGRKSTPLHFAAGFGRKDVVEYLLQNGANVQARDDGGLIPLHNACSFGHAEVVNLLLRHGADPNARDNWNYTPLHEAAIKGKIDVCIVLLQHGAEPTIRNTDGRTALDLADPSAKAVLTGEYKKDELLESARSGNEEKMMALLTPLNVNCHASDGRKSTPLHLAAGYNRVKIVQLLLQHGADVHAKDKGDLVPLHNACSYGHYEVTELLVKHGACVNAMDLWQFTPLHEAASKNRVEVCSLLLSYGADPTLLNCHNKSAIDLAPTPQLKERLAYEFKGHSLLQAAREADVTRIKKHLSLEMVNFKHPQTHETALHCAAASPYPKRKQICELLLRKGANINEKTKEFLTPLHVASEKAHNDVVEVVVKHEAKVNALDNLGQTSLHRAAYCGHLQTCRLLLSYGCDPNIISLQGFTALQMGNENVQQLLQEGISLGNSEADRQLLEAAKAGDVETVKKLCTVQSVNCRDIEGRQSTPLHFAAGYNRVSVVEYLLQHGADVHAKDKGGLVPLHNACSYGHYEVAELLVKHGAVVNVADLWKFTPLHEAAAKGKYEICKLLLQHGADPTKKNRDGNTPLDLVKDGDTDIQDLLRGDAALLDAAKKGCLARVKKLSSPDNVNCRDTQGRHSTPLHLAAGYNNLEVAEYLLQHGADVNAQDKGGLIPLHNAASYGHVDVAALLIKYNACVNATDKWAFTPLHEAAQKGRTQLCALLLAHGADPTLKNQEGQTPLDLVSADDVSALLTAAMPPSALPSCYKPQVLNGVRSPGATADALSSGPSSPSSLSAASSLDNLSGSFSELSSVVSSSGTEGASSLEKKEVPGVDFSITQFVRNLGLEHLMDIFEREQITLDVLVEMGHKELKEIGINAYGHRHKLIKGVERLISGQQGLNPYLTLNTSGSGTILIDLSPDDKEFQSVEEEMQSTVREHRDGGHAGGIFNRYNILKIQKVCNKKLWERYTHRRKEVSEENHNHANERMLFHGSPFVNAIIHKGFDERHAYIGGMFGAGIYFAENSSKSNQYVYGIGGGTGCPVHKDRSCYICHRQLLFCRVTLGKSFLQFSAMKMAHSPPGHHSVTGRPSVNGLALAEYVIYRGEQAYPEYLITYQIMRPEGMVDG
Description: Modified TNKS2 Assay 2 (auto-parsylation, [3H]-NAD+ SPA). The test is classed as biochemical. Conditions: 6 nM TNKS2, 96 well.

The subject of test [1] is wildtype Wnt signaling cascade. The experiment in a line: HEK293 TOP Assay (Super TopFlash luciferase reporter, Wnt-3a stimulated). The test is classed as cell-based. In short, it runs like this:
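HEK293 cells stably carrying Super TopFlash (TOP) or FOP reporter, stimulated with recombinant human Wnt-3a (2500–5 ng/ml, two-fold steps). Both lines incubated in parallel with compound from 50 μM to 15 nM (3.16-fold) in CAFTY buffer pH 7.4 with 2 mM Ca2+ and 0.01% BSA; selectivity judged TOP vs FOP.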
In general terms: A reporter such as luciferase makes a cellular process visible.

Setting [2] is: Homo sapiens, HEK293, 16 h, HEK293 TOP reporter cell line, Wnt-3a at EC50, 16 hours incubation, compound dilution series 50 μM to 15 nM.
[3] abbreviates: Homo sapiens, HEK293, 16 h, HEK293 TOP reporter cells, Wnt3a at EC50, 16 hours, luciferase.

The term pIC50 denotes the IC50 on a negative log10 scale, so that one unit is a factor of ten. The low end stands for a high IC50, the high end for a low IC50. As for `CC(CN1CCOCC1)NC(=O)c1[nH]cnc1C(=O)Nc1ccc(NC(=O)c2ccc(F)cc2Cl)cc1` (single isomer, unassigned; enantiomer 2) [Example 270, N^4-{4-[(2-chloro-4-fluorobenzoyl)amino]phenyl}-N^5-[1-(morpholin-4-yl)propan-2-yl]-1H-imidazole-4,5-dicarboxamide (enantiomer 2)], the pIC50 at TNKS2 is 8.52; in test [1] (HEK293 TOP reporter cell line, Wnt-3a at EC50, 16 hours incubation, compound dilution series 50 μM to 15 nM), 7.40.
Turning to `CNC(=O)c1nc[nH]c1C(=O)Nc1ccc(NC(=O)c2ccccc2)cc1` [Example 21, N^5-[4-(benzoylamino)phenyl]-N^4-methyl-1H-imidazole-4,5-dicarboxamide], the results for the pIC50 (against TNKS2; in test [1] (setting [2]); in test [1] (setting [3])) were less than 5.00, 4.92 and 4.92, respectively.
As to `CN(C)CCNC(=O)c1nc[nH]c1C(=O)Nc1ccc(NC(=O)c2ccc(F)cc2Cl)cc1` [Example 22, N^4-{4-[(2-chloro-4-fluorobenzoyl)amino]phenyl}-N^5-[2-(dimethylamino)ethyl]-1H-imidazole-4,5-dicarboxamide], the pIC50 was 7.70 on TNKS2, 6.85 in test [1] (setting [2]) and 6.89 in test [1] (setting [3]).
On the same counts, the results for `O=C(Nc1ccc(NC(=O)c2[nH]cnc2C(=O)N2CCOCC2)cc1)c1ccc(F)cc1Cl` [Example 29, N-{4-[(2-chloro-4-fluorobenzoyl)amino]phenyl}-5-(morpholin-4-ylcarbonyl)-1H-imidazole-4-carboxamide] are 5.72, 5.41 and 5.41.
Taken in the same sequence, the figures for `O=C(Nc1ccc(NC(=O)c2[nH]cnc2C(=O)NCCN2CCCCC2)cc1)c1ccc(F)cc1Cl` [Example 32, N^4-{4-[(2-chloro-4-fluorobenzoyl)amino]phenyl}-N^5-[2-(piperidin-1-yl)ethyl]-1H-imidazole-4,5-dicarboxamide] were 9.52, 7.70 and 7.70.
Regarding `CNC(=O)c1nc[nH]c1C(=O)Nc1ccc(NC(=O)c2c(Cl)cccc2C(F)(F)F)cc1` [Example 36, N^5-(4-{[2-chloro-6-(trifluoromethyl)benzoyl]amino}phenyl)-N^4-methyl-1H-imidazole-4,5-dicarboxamide], the pIC50 on TNKS2 is less than 5.00; in test [1] (setting [2]), 5.21; in test [1] (setting [3]) it was 5.21.
Turning to `CCc1ccccc1C(=O)Nc1ccc(NC(=O)c2[nH]cnc2C(=O)NC)cc1` [Example 39, N^5-{4-[(2-ethylbenzoyl)amino]phenyl}-N^4-methyl-1H-imidazole-4,5-dicarboxamide], the pIC50 is 5.66 on TNKS2, 5.77 in test [1] (setting [2]) and 5.77 in test [1] (setting [3]).
In the case of `O=C(Nc1ccc(NC(=O)c2[nH]cnc2C(=O)NCCC2CCCC2)cc1)c1ccc(F)cc1Cl` [Example 42, N^5-{4-[(2-chloro-4-fluorobenzoyl)amino]phenyl}-N^4-(2-cyclopentylethyl)-1H-imidazole-4,5-dicarboxamide], the pIC50 on TNKS2 was less than 5.00; in test [1] (setting [2]), 5.64.
Take `O=C(Nc1ccc(NC(=O)c2[nH]cnc2C(=O)NCCC2CC2)cc1)c1ccc(F)cc1Cl` [Example 43, N^5-{4-[(2-chloro-4-fluorobenzoyl)amino]phenyl}-N^4-(2-cyclopropylethyl)-1H-imidazole-4,5-dicarboxamide]: the results for the pIC50 (at TNKS2; in test [1] (setting [2])) were less than 5.00 and 6.28, respectively.
Turning to `CN1CC2(C1)CN(C(=O)c1nc[nH]c1C(=O)Nc1ccc(NC(=O)c3ccc(F)cc3Cl)cc1)C2` [Example 46, N-{4-[(2-chloro-4-fluorobenzoyl)amino]phenyl}-4-[(6-methyl-2,6-diazaspiro[3.3]hept-2-yl)carbonyl]-1H-imidazole-5-carboxamide], the figures for the pIC50 (at TNKS2; in test [1] (setting [2])) were 5.96 and 6.54, respectively.
On to `O=C(Nc1ccc(NC(=O)c2[nH]cnc2C(=O)NCCC2CCCC2)cc1)c1cc(F)c(F)cc1Cl` [Example 48, N^5-{4-[(2-chloro-4,5-difluorobenzoyl)amino]phenyl}-N^4-(2-cyclopentylethyl)-1H-imidazole-4,5-dicarboxamide], for which the figures for the pIC50 (at TNKS2; in test [1] (setting [2])) were less than 5.00 and 5.58, respectively.
`O=C(Nc1ccc(NC(=O)c2[nH]cnc2C(=O)NC2CC2)cc1)c1cc(F)c(F)cc1Cl` [Example 51, N^5-{4-[(2-chloro-4,5-difluorobenzoyl)amino]phenyl}-N^4-cyclopropyl-1H-imidazole-4,5-dicarboxamide]: the pIC50 against TNKS2 is 7.30; in test [1] (setting [2]) it was 6.85.
On to `O=C(Nc1ccc(NC(=O)c2[nH]cnc2C(=O)N2CC3(COC3)C2)cc1)c1cc(F)c(F)cc1Cl` [Example 52, N-{4-[(2-chloro-4,5-difluorobenzoyl)amino]phenyl}-4-(2-oxa-6-azaspiro[3.3]hept-6-ylcarbonyl)-1H-imidazole-5-carboxamide], for which the pIC50 against TNKS2 was 6.66; in test [1] (setting [2]), 6.21.
Taken in the same sequence, the figures for `CS(=O)(=O)c1ccc(C(=O)Nc2ccc(NC(=O)c3[nH]cnc3C(=O)NCCN3CCCCC3)cc2)c(Cl)c1` [Example 53, N^5-(4-{[2-chloro-4-(methylsulfonyl)benzoyl]amino}phenyl)-N^4-[2-(piperidin-1-yl)ethyl]-1H-imidazole-4,5-dicarboxamide] were 8.00 and 7.40.
As for `CNC(=O)c1nc[nH]c1C(=O)Nc1ccc(NC(=O)c2ccc(S(C)(=O)=O)cc2Cl)cc1` [Example 55, N^5-(4-{[2-chloro-4-(methylsulfonyl)benzoyl]amino}phenyl)-N^4-methyl-1H-imidazole-4,5-dicarboxamide], the negative-log IC50 (pIC50) was 7.15 at TNKS2 and 6.57 in test [1] (setting [2]).
Consider `CNC(=O)c1nc[nH]c1C(=O)Nc1ccc(NC(=O)c2ccc(F)cc2Br)cc1` [Example 56, N^5-{4-[(2-bromo-4-fluorobenzoyl)amino]phenyl}-N^4-methyl-1H-imidazole-4,5-dicarboxamide], for which the values for the negative logarithm of the IC50 (pIC50) (on TNKS2; in test [1] (setting [2])) were 6.24 and 6.92, respectively.
For `CNC(=O)c1nc[nH]c1C(=O)Nc1ccc(NC(=O)c2ccccc2OC)cc1` [Example 60, N^5-{4-[(2-methoxybenzoyl)amino]phenyl}-N^4-methyl-1H-imidazole-4,5-dicarboxamide], the figures for the pIC50 (against TNKS2; in test [1] (setting [2])) were less than 5.00 and 4.81, respectively.
In the case of `CNC(=O)c1nc[nH]c1C(=O)Nc1ccc(NC(=O)c2ccc(F)cc2I)cc1` [Example 61, N^5-{4-[(4-fluoro-2-iodobenzoyl)amino]phenyl}-N^4-methyl-1H-imidazole-4,5-dicarboxamide], the pIC50 on TNKS2 is 7.22; in test [1] (setting [2]) it was 7.00.
With `O=C(Nc1ccc(NC(=O)c2[nH]cnc2C(=O)NCCN2CCCCC2)cc1)c1ccc(F)cc1I` [Example 62, N^5-{4-[(4-fluoro-2-iodobenzoyl)amino]phenyl}-N^4-[2-(piperidin-1-yl)ethyl]-1H-imidazole-4,5-dicarboxamide], the pIC50 was 6.51 at TNKS2 and 8.00 in test [1] (setting [2]).
Turning to `CNC(=O)c1nc[nH]c1C(=O)Nc1ccc(NC(=O)c2cc(OC(F)(F)F)ccc2Br)cc1` [Example 64, N^5-(4-{[2-bromo-5-(trifluoromethoxy)benzoyl]amino}phenyl)-N^4-methyl-1H-imidazole-4,5-dicarboxamide], the figures for the pIC50 (against TNKS2; in test [1] (setting [2])) were less than 5.00 and 5.84, respectively.
For `Cc1nc(C(=O)Nc2ccc(NC(=O)c3ccc(F)cc3Cl)cc2)c(C(=O)NCCN(C)C)[nH]1` [Example 66, N^4-{4-[(2-chloro-4-fluorobenzoyl)amino]phenyl}-N^5-[2-(dimethylamino)ethyl]-2-methyl-1H-imidazole-4,5-dicarboxamide], the pIC50 against TNKS2 was 7.40; in test [1] (setting [2]) it was 6.51.
